According to publication PMC11995211, “Design, Synthesis, and Evaluation of a New Fluorescent Ligand for the M2 Muscarinic Acetylcholine Receptor” (ACS Medicinal Chemistry Letters, 2025):

Legend:
[1] = biological target: T1, hM3R (Homo sapiens, UniProt P20309); assay: Radioligand competition binding, [3H]-scopolamine (N-methyl), CHO cell membranes, hM3R; settings: mean ± SD, n = 3; membranes from CHO cells transfected with hM3R; read-out: Receptor Ki M3
T1 construct: expressed in transfected cells; host or cells: CHO cell membranes
T1 sequence (P20309 whole entry): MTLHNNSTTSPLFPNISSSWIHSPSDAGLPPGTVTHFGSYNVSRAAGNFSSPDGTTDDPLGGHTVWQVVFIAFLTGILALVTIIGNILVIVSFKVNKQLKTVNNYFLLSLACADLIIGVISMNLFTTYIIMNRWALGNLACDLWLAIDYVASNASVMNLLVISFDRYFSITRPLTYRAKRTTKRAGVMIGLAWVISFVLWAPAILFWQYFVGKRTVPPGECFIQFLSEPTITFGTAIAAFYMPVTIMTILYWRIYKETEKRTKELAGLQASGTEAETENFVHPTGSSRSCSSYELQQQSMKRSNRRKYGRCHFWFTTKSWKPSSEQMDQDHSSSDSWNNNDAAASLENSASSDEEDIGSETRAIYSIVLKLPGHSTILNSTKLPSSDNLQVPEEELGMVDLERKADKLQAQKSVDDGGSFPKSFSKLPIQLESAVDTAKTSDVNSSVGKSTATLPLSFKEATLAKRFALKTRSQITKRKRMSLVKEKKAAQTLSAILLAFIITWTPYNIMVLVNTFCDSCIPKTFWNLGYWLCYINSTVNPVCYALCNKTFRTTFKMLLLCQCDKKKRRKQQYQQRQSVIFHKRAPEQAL

[2] = biological target: T2, HA–M2R (Homo sapiens, UniProt P08172); assay: STED nanoscopy labeling of living HEK 293T cells; type: cell-based; settings: 300 nM
T2 sequence (P08172 1-466): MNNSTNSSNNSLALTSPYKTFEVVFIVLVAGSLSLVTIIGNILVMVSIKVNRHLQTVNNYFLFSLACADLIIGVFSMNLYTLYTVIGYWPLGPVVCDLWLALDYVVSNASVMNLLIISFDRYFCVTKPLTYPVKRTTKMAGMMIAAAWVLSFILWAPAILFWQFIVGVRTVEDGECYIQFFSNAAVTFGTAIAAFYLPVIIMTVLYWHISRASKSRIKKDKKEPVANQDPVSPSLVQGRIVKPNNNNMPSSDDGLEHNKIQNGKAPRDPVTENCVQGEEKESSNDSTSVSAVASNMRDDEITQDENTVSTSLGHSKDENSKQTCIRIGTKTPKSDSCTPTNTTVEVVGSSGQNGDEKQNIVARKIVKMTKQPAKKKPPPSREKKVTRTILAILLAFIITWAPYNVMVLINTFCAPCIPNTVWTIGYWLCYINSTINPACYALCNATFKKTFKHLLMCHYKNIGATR
Description: As STED microscopy is used for the deeper investigation of cellular processes even at the subcellular level, we challenged the fluorescent probe 33 in STED nanoscopy (Figure ). For STED, we used the same transfected cells as in the case of two-photon microscopy. Using the STED function and the available largest magnification objective, we observed improvement of optical resolution.
Figure S7. […] Scale bar:
20 μm. Representative images of two independent experiments are shown.
Figure S8. […] Scale bar:
50 μm. Representative images of two independent experiments are shown.
Confocal and STED microscopy
Confocal and STED images were acquired using a Leica TCS SP8 STED 3× inverse […]
well IBIDI chamber slides. The samples were scanned with a Leica HC PL Fluotar 20x/0.55 objective and a PMT detector. A 488 nm laser was used for the excitation of the fluorescent dye OG488 for the confocal imaging, and the spectral detection parameters were 500-550 nm.
(§1) (1 picture or pasted object on this page, not shown here)
Simultaneous transmission light imaging was used to detect the cells. For STED imaging, we used the same excitation laser and a Leica HC PL APO 100×/1.40 oil immersion objective and a Leica HyD detector, which was completed with a 660 nm STED (1.5 W, continuous wave) laser for depletion (at 1.17–2.48 × 109 W mm−2 nominal intensity with an output laser power of 1.2 W/32 nm × 32 nm pixel size). […]

[3] = biological target: T3, M2R–Cerulean (Homo sapiens, UniProt P08172); assay: Confocal microscopy labeling of live HEK 293T cells; type: cell-based
T3 construct: expressed in transfected cells
T3 sequence (P08172 1-466): T2 sequence (P08172 1-466)

[4] = biological target: T4, GLuc–M2R (Homo sapiens, UniProt P08172); assay: BRET-based ligand binding on HEK 293T cells expressing GLuc–M2R
T4 construct: expressed in transfected cells
T4 sequence (P08172 1-466): T2 sequence (P08172 1-466)

[5] = biological target: T5, M2R (Homo sapiens, UniProt P08172); assay: BRET-based TRUPATH GoA activation assay, antagonism of carbachol-induced G protein activation; type: cell-based
T5 sequence (P08172 1-466): T2 sequence (P08172 1-466)

[6] = biological target: T2, HA–M2R; assay: Two-photon microscopy labeling of live HEK 293T cells; type: cell-based; settings: 300 nM
Description: We examined live M2R cells with two-photon microscopy as well (Figure ). A labeling pattern similar to that observed in the confocal microscopy studies was identified. Figure A illustrates 33 labeling in HA–M2R-transfected cells. […] Similarly to the confocal images, no dye labeling was detected inside the cells. Figure B presents a microscopic image of nontransfected cells, showing a minor degree of autofluorescence. […] For additional two-photon images, see Figures S7 and S8. […]
were examined using a two-photon laser scanning system (Femto2D-uncage, Femtonics Ltd., Budapest, Hungary). The imaging laser (Chameleon Ultra II, Coherent Ltd., Santa Clara, CA, USA) was set to 820 nm and to 2-3% intensity. The excitation was delivered to the slices and the fluorescent signal was collected using an XLUMPlanFI 20x lens (Olympus, Tokyo, Japan).
Before image acquisition, cells were washed twice, and the medium was replaced to modified Krebs–Ringer solution. After capturing the zero-point image, we added 300 nM 33. After two minutes we captured images in 33 and infrared transmission channels. After 3 minutes, unbound 33 was removed by washing the cells with modified Krebs–Ringer solution, and the image […]
as §1

[7] = biological target: T6, hM5R (Homo sapiens, UniProt P08912); assay: Radioligand competition binding, [3H]-scopolamine (N-methyl), CHO cell membranes, hM5R; settings: mean ± SD, n = 3; membranes from CHO cells transfected with hM5R; read-out: Receptor Ki M5
T6 construct: expressed in transfected cells; host or cells: CHO cell membranes
T6 sequence (P08912 1-532): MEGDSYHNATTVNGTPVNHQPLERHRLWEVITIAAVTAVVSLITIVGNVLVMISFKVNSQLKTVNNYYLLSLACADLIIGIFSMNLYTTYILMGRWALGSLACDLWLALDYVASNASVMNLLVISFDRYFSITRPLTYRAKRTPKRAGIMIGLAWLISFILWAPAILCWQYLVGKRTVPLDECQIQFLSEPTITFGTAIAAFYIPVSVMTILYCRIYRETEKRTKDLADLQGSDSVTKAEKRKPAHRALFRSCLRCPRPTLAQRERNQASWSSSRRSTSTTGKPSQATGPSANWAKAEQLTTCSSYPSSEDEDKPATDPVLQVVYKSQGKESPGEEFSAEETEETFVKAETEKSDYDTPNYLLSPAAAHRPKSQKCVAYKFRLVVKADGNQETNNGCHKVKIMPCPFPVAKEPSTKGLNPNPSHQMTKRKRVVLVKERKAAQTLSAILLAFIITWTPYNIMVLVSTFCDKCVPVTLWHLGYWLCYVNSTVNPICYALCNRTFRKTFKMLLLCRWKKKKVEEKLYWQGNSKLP

O=C(CCOCCOCCNC(=O)c1ccc(-c2c3cc(F)c(=O)cc-3oc3cc(O)c(F)cc23)c(C(=O)O)c1)NCCOCCOCCNc1ccccc1C(=O)N1CCC(N2CCC(Cc3ccc(S(=O)(=O)c4cccc(Cl)c4)cc3)CC2)CC1 [Compound 33]
Ki [1]: 55600 ± 3240 nM
signal location in HA–M2R-expressing cells ([2]; living HEK 293T): concentrated in the membranes of cells
fluorescence in control (M2R-negative) cells ([2]; non-transfected HEK 293T): fluorescence is lacking
labeling of M2R–Cerulean-expressing cells ([3]; 300 nM, 3 min, live transfected HEK 293T): significant labeling
labeling of nontransfected cells ([3]; 300 nM, 3 min, nontransfected HEK 293T): no labeling was observed
labeling after atropine pretreatment ([3]; 100 μM atropine 5 min before 300 nM 33): no labeling
Kd ([4]; 1-hour treatment, nonspecific with 100 μM atropine, read-out: dissociation constant (KD), equilibrium BRET-based ligand binding): 119 nM
kon ([4]; BRET-based kinetic ligand binding, read-out: association rate constant): 8060 M⁻¹ s⁻¹
koff ([4]; read-out: dissociation rate constant): 0.000867 s⁻¹
mode of antagonism of carbachol-induced G protein activation ([5]; TRUPATH GoA assay): competitive antagonists
Log(IC50) ± SD (M), carbachol-induced GoA protein activation ([5]; log10 of IC50 (negative values), HEK 293T, compound 20 min, then 10 μM carbachol 15 min, Hill-slope = 1, n = 3): –7.39 ± 0.09 M
labeling of HA–M2R-transfected cells ([6]; excited at 820 nm, live HEK 293T): selectively only at the plasma membrane
labeling of nontransfected cells ([6]; nontransfected HEK 293T): no receptor labeling was observed
Ki [7]: 182 ± 23 nM
